Laboratory results: patent US9453000B2, “Polycyclic compound” (EISAI R&D MANAGEMENT CO., LTD., priority 2007, dated 2016)

tested on: Aβ42 production in rat primary neuronal culture; test: Quantification of Aβ peptide in culture of neurons from rat fetus brain (Aβ ELISA); assay type: cell-based; settings: Primary cortical neuron, 72 h, rat primary cortical neurons (embryonic day 18 Wistar), three days after addition of the compound, Aβx-42 ELISA of medium, read-out: Aβ42 production reducing effect IC50
Description: Quantification of Aβ Peptide in Culture of Neurons from Rat Fetus Brain
(1) Rat Primary Neuronal Culture
Primary neuronal cultures were prepared from the cerebral cortex of embryonic day 18 Wistar rats (Charles River Japan, Yokohama, Japan). Specifically, the embryos were aseptically removed from pregnant rats under ether anesthesia. The brain was isolated from the embryo and immersed in an ice-cold L-15 medium (Invitrogen Corp. Cat #11415-064, Carlsbad, Calif., USA, or SIGMA L1518, for example). The cerebral cortex was collected from the isolated brain under a stereoscopic microscope. The cerebral cortex fragments collected were enzymatically treated in an enzyme solution containing 0.25% trypsin (Invitrogen Corp. Cat #15050-065, Carlsbad, Calif., USA) and 0.01% DNase (Sigma D5025, St. Louis, Mo., USA) at 37° C. for 30 minutes to disperse the cells. Here, the enzymatic reaction was stopped by adding inactivated horse serum to the solution. The enzymatically treated solution was centrifuged at 1,500 rpm for five minutes to remove the supernatant. 5 to 10 ml of a medium was added to the resulting cell mass. Neurobasal medium (Invitrogen Corp. Cat #21103-049, Carlsbad, Calif., USA) supplemented with 2% B27 supplement (Invitrogen Corp. Cat #17504-044, Carlsbad, Calif., USA), 25 μM 2-mercaptoethanol (2-ME, WAKO Cat #139-06861, Osaka, Japan), 0.5 mM L-glutamine (Invitrogen Corp. Cat #25030-081, Carlsbad, Calif., USA), and Antibiotics-Antimycotics (Invitrogen Corp. Cat #15240-062, Carlsbad, Calif., USA) was used as the medium (Neurobasal/B27/2-ME). However, the above Neurobasal medium not supplemented with 2-ME (Neurobasal/B27) was used for the assay. The cells were redispersed by mild pipetting of the cell mass to which the medium was added. The cell dispersion was filtered through a 40-μm nylon mesh (Cell Strainer, Cat #35-2340, Becton Dickinson Labware, Franklin Lakes, N.J., USA) to remove the remaining cell mass, and thus a neuronal cell suspension was obtained. The neuronal cell suspension was diluted with the medium and then plated in a volume of 100 μl/well at an initial cell density of 5×10^5 cells/cm^2 in a 96-well polystyrene culture plate pre-coated with poly-L or D-lysine (Falcon Cat #35-3075, Becton Dickinson Labware, Franklin Lakes, N.J., USA coated with poly-L-lysine using the method shown below, or BIOCOAT™ cell environments Poly-D-lysine cell ware 96-well plate, Cat #35-6461, Becton Dickinson Labware, Franklin Lakes, N.J., USA). Poly-L-lysine coating was carried out as follows. 100 μg/ml of a poly-L-lysine (SIGMA P2636, St. Louis, Mo., USA) solution was aseptically prepared with a 0.15 M borate buffer (pH 8.5). 100 μl/well of the solution was added to the 96-well polystyrene culture plate and incubated at room temperature for one or more hours or at 4° C. overnight or longer. The coated 96-well polystyrene culture plate was washed with sterile water four or more times, and then dried or rinsed with, for example, sterile PBS or medium, and used for cell plating. The plated cells were cultured in the culture plate at 37° C. in 5% CO2-95% air for one day. Then, the total amount of the medium was replaced with a fresh Neurobasal™/B27/2-ME medium, and then the cells were cultured for further three days.
The drug was added to the culture plate on Day 4 of culture as follows. The total amount of the medium was removed from the wells, and 180 μl/well of Neurobasal medium not containing 2-ME and containing 2% B-27 (Neurobasal/B27) was added thereto. A solution of the test compound in dimethyl sulfoxide (hereinafter abbreviated as DMSO) was diluted with Neurobasal/B27 at 10-fold of the final concentration. 20 μl/well of the dilution was added to and sufficiently mixed with the medium. The final DMSO concentration was 1% or less. Only DMSO was added to the control group.
The cells were cultured for three days after addition of the compound, and the total amount of the medium was collected. […]

SMILES | IC50 [nM]
COc1nc(/C=C/c2nc3n(n2)CCC(C)N3c2ccccc2C(F)(F)F)ccc1-n1cnc(C)c1 (single isomer, unassigned; (+)) [Example 373, (+)-2-{(E)-2-[6-methoxy-5-(4-methyl-1H-imidazol-1-yl)pyridin-2-yl]vinyl}-5-methyl-4-(2-trifluoromethylphenyl)-4,5,6,7-tetrahydro-[1,2,4]triazolo[1,5-a]pyrimidine] | 29
COc1cc(/C=C(\F)c2nc3n(n2)CCCC3(O)c2cc(F)c(F)c(F)c2)ccc1-n1cnc(C)c1 (single isomer, unassigned; (-)) [Example 94, (−)-2-{(Z)-1-fluoro-2-[3-methoxy-4-(4-methyl-1H-imidazol-1-yl)phenyl]vinyl}-8-(3,4,5-trifluorophenyl)-5,6,7,8-tetrahydro[1,2,4]triazolo[1,5-a]pyridin-8-ol] | 52
COc1cc(/C=C/c2nc3n(n2)CCC3c2ccccc2)ccc1-n1cnc(C)c1 (single isomer, unassigned; (-)) [Example 141, (−)-2-{(E)-2-[3-methoxy-4-(4-methyl-1H-imidazol-1-yl)phenyl]vinyl}-7-phenyl-6,7-dihydro-5H-pyrrolo[1,2-b][1,2,4]triazole] | 36
COc1nc(/C=C/c2nc3n(n2)CCOC3c2ccc(Cl)cc2)ccc1-n1cnc(C)c1 (single isomer, unassigned; (-)) [Example 262, (−)-8-(4-chlorophenyl)-2-{(E)-2-[6-methoxy-5-(4-methyl-1H-imidazol-1-yl)pyridin-2-yl]vinyl}-5,6-dihydro-8H-[1,2,4]triazolo[5,1-c][1,4]oxazine] | 74
COc1nc(/C=C/c2nc3n(n2)CCCC3c2cc(F)cc(F)c2)ccc1-n1cnc(C)c1 (single isomer, unassigned; (-)) [Example 365, (−)-8-(3,5-difluorophenyl)-2-{(E)-2-[6-methoxy-5-(4-methyl-1H-imidazol-1-yl)pyridin-2-yl]vinyl}-5,6,7,8-tetrahydro-[1,2,4]triazolo[1,5-a]pyridine] | 21
COc1nc(/C=C/c2nc3n(n2)CCOC3c2ccccc2C(F)(F)F)ccc1-n1cnc(C)c1 (single isomer, unassigned; (-)) [Example 368, (−)-2-{(E)-2-[6-methoxy-5-(4-methyl-1H-imidazol-1-yl)pyridin-2-yl]vinyl}-8-(2-trifluoromethylphenyl)-5,6-dihydro-8H-[1,2,4]triazolo[5,1-c][1,4]oxazine] | 25
COc1nc(/C=C/c2nc3n(n2)CCC3c2cc(F)cc(F)c2)ccc1-n1cnc(C)c1 (single isomer, unassigned; (-)) [Example 384, (−)-7-(3,5-difluorophenyl)-2-{(E)-2-[6-methoxy-5-(4-methyl-1H-imidazol-1-yl)pyridin-2-yl]vinyl}-6,7-dihydro-5H-pyrrolo[1,2-b][1,2,4]triazole] | 36
CCCCC(O)c1ccc(C2CCCn3nc(/C=C/c4ccc(-n5cnc(C)c5)c(OC)c4)nc32)cc1 (stereo not shown) [Example 19, 1-{4-{2-{(E)-2-[3-methoxy-4-(4-methyl-1H-imidazol-1-yl)phenyl]vinyl}-5,6,7,8-tetrahydro[1,2,4]triazolo[1,5-a]pyridin-8-yl}phenyl}pentan-1-ol] | 43
COc1nc(/C=C/c2nc3n(n2)CC[C@@H](C)N3c2ccc(F)cc2F)ccc1-n1cnc(C)c1 [Example 371, (R)-4-(2,4-difluorophenyl)-2-{(E)-2-[6-methoxy-5-(4-methyl-1H-imidazol-1-yl)pyridin-2-yl]vinyl}-5-methyl-4,5,6,7-tetrahydro-[1,2,4]triazolo[1,5-a]pyrimidine] | 27
COc1nc(/C=C/c2nc3n(n2)CC[C@H]3c2ccccc2)ccc1-n1cnc(C)c1 [Example 376, (S)-2-{(E)-2-[6-methoxy-5-(4-methyl-1H-imidazol-1-yl)pyridin-2-yl]vinyl}-7-phenyl-6,7-dihydro-5H-pyrrolo[1,2-b][1,2,4]triazole] | 28
COc1nc(/C=C/c2nc3n(n2)CC[C@H]3c2ccc(F)c(F)c2)ccc1-n1cnc(C)c1 [Example 380, (S)-7-(3,4-difluorophenyl)-2-{(E)-2-[6-methoxy-5-(4-methyl-1H-imidazol-1-yl)pyridin-2-yl]vinyl}-6,7-dihydro-5H-pyrrolo[1,2-b][1,2,4]triazole] | 29
COc1nc(/C=C/c2nc3n(n2)CC[C@H]3c2ccccc2C(F)(F)F)ccc1-n1cnc(C)c1 [Example 390, (S)-2-{(E)-2-[6-methoxy-5-(4-methyl-1H-imidazol-1-yl)pyridin-2-yl]vinyl}-7-(2-trifluoromethylphenyl)-6,7-dihydro-5H-pyrrolo[1,2-b][1,2,4]triazole] | 26
COc1nc(/C=C/c2nc3n(n2)CC[C@H]3c2cc(F)ccc2C(F)(F)F)ccc1-n1cnc(C)c1 [Example 392, (S)-7-(5-fluoro-2-trifluoromethylphenyl)-2-{(E)-2-[6-methoxy-5-(4-methyl-1H-imidazol-1-yl)pyridin-2-yl]vinyl}-6,7-dihydro-5H-pyrrolo[1,2-b][1,2,4]triazole] | 22
